Among the data in ChEMBL document CHEMBL3991601, “The target landscape of clinical kinase drugs” (Science, 2017) are Kd values, retold here.

Activity calls are given as the source filed them. Rule as the data show it, for most assays here: actives have a measured Kd and inactives only a lower limit. Where only a bound is given, the exact number is not on record here.

Test [1] concerns the target T1, Serine/threonine-protein kinase STK11 (Homo sapiens, UniProt Q15831).
T1 sequence (Q15831 whole entry): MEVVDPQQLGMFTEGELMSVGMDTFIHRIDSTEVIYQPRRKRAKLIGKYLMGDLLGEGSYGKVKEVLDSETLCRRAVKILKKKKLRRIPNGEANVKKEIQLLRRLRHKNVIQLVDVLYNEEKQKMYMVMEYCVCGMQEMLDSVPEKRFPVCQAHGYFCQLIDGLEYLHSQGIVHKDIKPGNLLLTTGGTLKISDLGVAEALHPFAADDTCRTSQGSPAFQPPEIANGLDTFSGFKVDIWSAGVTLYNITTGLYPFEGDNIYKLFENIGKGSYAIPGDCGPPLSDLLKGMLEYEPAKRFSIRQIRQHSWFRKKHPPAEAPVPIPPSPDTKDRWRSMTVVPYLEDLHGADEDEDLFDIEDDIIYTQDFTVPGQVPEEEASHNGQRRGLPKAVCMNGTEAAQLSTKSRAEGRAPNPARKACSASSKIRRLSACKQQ

For test [2], the target named is Serine/threonine-protein kinase PAK 4 (Homo sapiens, UniProt O96013).
The target in test [3] is Mitogen-activated protein kinase 8 (Homo sapiens, UniProt P45983).
In test [4] the target is Chromodomain-helicase-DNA-binding protein 4 (Homo sapiens, UniProt Q14839).
For test [5], the target named is Activin receptor type-2B (Homo sapiens, UniProt Q13705).
The target in test [6] is T2, Tyrosine-protein kinase Tec (Homo sapiens, UniProt P42680).
T2 sequence (P42680 whole entry): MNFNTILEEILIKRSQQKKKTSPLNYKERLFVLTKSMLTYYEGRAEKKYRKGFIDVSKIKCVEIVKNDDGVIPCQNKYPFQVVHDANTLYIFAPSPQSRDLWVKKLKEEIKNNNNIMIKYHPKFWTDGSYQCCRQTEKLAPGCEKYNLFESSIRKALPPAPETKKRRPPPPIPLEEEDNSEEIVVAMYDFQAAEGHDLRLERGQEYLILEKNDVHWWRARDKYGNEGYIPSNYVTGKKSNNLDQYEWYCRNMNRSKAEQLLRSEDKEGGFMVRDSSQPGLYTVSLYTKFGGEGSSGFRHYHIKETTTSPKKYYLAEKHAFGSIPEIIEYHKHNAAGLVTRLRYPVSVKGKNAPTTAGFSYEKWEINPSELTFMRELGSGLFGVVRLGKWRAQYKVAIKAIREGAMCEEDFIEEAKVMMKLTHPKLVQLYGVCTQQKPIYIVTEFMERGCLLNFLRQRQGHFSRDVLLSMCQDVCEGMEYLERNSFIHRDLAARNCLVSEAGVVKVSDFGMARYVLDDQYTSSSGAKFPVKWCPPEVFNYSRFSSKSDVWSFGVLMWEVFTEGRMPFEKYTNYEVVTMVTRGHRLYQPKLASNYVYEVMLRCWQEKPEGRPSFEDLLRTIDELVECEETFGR

In test [7] the target is Dual specificity tyrosine-phosphorylation-regulated kinase 1A (Homo sapiens, UniProt Q13627).
Test [8] addresses Cyclin-dependent kinase 5 (Homo sapiens, UniProt Q00535).
The target in test [9] is Interleukin-1 receptor-associated kinase 1 (Homo sapiens, UniProt P51617).
The target of test [10] is Serine/threonine-protein kinase N2 (Homo sapiens, UniProt Q16513).
Test [11] has as its target T3, Serine/threonine-protein kinase TAO3 (Homo sapiens, UniProt Q9H2K8).
T3 sequence (Q9H2K8 whole entry): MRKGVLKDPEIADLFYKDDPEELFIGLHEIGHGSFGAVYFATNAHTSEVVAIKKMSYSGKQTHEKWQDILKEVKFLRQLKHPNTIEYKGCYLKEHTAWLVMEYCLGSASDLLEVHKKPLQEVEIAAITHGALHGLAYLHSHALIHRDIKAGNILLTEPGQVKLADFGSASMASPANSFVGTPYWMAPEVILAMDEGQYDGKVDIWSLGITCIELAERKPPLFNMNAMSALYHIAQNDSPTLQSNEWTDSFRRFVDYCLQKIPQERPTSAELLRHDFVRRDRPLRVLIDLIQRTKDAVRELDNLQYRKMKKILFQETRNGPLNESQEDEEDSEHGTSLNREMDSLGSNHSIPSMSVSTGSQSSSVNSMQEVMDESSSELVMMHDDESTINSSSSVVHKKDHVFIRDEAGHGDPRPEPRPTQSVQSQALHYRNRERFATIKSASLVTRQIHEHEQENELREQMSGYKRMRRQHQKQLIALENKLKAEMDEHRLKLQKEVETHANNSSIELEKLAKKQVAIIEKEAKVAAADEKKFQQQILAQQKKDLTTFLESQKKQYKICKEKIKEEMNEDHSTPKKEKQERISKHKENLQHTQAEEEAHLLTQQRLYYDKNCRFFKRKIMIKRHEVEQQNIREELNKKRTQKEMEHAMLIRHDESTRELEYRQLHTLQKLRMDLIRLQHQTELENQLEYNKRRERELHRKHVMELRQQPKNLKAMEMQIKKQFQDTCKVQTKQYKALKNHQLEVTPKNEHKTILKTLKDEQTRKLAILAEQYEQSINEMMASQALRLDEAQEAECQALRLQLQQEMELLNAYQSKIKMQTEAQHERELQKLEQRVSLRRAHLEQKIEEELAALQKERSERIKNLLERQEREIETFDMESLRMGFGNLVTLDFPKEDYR

Test [12] addresses Maternal embryonic leucine zipper kinase (Homo sapiens, UniProt Q14680).
For test [13], the target named is T4, Ribosyldihydronicotinamide dehydrogenase [quinone] (Homo sapiens, UniProt P16083).
T4 sequence (P16083 whole entry): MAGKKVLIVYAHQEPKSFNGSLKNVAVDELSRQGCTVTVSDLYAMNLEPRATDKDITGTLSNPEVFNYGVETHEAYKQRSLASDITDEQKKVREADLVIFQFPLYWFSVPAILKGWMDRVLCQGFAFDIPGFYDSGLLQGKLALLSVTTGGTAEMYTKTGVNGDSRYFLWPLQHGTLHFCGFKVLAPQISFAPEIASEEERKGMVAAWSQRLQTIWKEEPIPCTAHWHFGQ
Also: in the data inactive means no Kd found up to 30 µM.

Sequence of Serine/threonine-protein kinase PAK 4 (O96013 whole entry): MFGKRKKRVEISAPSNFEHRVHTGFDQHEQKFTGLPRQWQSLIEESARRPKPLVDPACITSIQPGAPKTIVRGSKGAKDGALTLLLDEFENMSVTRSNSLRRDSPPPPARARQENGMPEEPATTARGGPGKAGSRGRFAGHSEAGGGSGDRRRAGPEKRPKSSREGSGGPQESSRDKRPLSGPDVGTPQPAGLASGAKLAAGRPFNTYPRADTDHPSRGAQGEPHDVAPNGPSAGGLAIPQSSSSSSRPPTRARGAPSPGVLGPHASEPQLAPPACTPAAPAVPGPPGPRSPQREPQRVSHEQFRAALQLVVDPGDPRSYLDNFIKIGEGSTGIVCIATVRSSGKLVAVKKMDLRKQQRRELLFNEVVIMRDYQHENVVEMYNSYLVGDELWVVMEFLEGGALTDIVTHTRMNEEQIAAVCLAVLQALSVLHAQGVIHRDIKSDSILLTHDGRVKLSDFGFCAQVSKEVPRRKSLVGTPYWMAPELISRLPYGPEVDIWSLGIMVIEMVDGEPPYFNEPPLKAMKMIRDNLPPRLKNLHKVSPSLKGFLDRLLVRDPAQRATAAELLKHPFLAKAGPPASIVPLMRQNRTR
Sequence of Cyclin-dependent kinase 5 (Q00535 whole entry): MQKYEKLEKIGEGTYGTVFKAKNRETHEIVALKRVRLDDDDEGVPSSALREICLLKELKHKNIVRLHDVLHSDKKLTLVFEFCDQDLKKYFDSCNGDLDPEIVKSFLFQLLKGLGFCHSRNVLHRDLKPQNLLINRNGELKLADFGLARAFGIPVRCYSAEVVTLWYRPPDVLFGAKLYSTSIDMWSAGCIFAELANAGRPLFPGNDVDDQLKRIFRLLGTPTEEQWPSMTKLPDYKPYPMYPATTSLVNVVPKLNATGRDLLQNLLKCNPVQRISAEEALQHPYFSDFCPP
Sequence of Mitogen-activated protein kinase 8 (P45983 whole entry): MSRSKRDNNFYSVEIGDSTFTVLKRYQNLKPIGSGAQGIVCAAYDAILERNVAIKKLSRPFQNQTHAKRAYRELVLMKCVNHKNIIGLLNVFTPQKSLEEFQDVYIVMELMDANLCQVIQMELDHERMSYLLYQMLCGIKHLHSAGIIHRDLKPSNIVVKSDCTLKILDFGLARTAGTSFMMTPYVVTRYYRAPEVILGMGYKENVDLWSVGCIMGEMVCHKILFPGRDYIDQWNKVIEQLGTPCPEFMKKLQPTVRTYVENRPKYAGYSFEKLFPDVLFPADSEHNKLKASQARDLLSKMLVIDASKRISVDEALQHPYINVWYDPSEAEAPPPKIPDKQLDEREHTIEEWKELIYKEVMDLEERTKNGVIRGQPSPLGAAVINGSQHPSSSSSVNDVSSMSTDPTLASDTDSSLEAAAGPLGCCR
Sequence of Chromodomain-helicase-DNA-binding protein 4 (Q14839 whole entry): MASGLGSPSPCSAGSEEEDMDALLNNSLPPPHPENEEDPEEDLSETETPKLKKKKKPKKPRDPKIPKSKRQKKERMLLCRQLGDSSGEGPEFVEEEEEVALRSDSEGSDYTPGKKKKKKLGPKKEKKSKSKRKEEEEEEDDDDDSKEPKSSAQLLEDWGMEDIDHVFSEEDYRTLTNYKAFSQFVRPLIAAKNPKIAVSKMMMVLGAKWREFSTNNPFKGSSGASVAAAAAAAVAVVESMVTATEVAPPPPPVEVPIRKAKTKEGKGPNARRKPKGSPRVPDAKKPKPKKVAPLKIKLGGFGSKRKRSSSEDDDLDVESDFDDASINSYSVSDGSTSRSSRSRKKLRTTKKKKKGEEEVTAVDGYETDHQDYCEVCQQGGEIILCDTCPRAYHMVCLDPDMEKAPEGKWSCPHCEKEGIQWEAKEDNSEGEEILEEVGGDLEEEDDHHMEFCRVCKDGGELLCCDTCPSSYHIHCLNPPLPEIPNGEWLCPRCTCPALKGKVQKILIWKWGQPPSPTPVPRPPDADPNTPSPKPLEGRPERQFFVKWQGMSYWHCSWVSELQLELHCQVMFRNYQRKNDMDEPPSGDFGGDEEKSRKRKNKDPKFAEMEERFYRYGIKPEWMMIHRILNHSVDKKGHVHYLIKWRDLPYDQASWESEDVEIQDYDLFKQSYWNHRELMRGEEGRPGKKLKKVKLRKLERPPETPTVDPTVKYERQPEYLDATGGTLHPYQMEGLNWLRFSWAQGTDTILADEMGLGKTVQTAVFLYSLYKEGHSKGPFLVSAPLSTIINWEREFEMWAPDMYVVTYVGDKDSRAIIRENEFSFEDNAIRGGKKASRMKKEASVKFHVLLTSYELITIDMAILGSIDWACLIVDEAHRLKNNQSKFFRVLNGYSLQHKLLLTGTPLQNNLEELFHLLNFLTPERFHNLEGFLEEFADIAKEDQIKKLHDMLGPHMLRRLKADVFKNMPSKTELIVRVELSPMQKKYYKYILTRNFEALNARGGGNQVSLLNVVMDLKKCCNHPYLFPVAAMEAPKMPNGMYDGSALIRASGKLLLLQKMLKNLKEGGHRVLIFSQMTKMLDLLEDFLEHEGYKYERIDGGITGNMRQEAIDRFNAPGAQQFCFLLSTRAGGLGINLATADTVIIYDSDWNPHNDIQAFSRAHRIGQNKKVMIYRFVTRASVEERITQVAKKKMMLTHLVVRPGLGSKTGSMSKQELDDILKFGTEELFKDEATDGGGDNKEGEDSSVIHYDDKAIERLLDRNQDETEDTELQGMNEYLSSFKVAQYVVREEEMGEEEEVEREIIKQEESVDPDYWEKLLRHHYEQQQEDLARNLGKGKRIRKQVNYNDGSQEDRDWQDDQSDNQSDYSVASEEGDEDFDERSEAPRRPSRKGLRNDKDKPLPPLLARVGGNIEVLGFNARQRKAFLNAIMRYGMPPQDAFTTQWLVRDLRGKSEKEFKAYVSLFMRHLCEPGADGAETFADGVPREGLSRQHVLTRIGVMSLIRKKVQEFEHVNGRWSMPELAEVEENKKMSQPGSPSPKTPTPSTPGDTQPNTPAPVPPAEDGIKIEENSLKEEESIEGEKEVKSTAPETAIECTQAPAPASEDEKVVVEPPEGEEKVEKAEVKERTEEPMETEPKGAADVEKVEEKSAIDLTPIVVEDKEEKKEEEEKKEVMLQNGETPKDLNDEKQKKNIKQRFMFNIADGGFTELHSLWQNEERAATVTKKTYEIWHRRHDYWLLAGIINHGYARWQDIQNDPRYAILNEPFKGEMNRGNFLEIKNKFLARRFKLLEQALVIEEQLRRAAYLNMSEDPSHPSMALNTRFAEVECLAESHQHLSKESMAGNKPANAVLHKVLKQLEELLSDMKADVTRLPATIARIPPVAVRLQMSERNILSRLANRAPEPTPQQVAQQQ
Sequence of Maternal embryonic leucine zipper kinase (Q14680 whole entry): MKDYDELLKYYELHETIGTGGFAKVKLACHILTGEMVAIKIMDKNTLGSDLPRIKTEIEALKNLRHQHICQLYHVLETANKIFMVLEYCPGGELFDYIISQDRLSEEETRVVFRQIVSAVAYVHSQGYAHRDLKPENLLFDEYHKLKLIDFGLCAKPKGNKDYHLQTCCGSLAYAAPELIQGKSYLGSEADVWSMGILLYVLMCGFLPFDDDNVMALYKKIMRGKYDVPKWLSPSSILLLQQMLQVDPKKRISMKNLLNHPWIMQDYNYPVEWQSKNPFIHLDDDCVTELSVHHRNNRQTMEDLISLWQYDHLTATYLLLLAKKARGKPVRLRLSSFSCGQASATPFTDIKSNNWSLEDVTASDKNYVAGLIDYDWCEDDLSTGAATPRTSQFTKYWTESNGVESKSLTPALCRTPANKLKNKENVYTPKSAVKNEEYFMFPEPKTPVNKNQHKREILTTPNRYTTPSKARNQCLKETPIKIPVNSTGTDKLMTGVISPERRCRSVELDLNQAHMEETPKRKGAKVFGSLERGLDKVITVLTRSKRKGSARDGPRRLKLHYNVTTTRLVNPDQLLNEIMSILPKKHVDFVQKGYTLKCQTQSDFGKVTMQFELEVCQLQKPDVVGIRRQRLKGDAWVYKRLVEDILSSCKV
Sequence of Serine/threonine-protein kinase N2 (Q16513 whole entry): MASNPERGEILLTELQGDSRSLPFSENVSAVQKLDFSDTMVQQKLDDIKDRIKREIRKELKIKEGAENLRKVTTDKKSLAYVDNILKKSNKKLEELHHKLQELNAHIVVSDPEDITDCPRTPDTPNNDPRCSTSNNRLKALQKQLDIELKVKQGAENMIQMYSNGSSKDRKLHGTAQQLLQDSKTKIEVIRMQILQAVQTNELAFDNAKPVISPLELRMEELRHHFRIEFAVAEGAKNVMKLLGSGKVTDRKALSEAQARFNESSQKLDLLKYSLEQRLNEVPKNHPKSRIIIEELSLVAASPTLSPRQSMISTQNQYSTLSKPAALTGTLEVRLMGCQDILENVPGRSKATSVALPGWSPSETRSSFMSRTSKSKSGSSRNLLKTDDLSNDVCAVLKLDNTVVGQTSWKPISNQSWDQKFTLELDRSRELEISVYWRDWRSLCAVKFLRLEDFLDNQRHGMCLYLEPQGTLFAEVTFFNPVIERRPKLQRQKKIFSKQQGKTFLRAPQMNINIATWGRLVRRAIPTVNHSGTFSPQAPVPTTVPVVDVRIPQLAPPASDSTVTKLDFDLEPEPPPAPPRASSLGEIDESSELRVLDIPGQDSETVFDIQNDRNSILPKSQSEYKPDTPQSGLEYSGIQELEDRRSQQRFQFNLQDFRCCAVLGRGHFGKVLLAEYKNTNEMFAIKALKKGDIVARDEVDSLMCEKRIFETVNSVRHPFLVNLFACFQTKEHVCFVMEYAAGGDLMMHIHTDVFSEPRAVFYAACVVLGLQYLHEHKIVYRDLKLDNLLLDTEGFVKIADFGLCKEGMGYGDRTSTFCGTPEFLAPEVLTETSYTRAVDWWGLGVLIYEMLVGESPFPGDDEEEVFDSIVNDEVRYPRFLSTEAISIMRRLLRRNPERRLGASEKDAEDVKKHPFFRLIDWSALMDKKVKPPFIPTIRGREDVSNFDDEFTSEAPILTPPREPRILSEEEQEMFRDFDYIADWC

Broadly, the Kd is the equilibrium constant for the complex coming apart. In the case of `Cc1c(Cn2c(C)nc3c(C(=O)O)cc(N4CCOCC4)cc32)cccc1C(F)(F)F` [GSK-2636771], the Kd in test [1], in test [2], in test [3], in [4], in test [5] and in test [6] was > 30 µM (inactive) throughout. The Kd in [7], in test [8], in test [9], in test [10], in test [11] and in test [12] was > 30 µM (inactive) in each case. Besides, in test [13], the Kd is > 30 µM (inactive).

As to `COc1cc2ncnc(Nc3ccc(O)cc3)c2cc1OC` [WHI-P131], the Kd in test [1], in [2], in [3], in test [4], in test [5] and in [6] was > 30 µM (inactive) in each case. The Kd in [7], in test [8], in [9], in test [10], in test [11] and in [12] was > 30 µM (inactive) in each case. Further, the Kd in [13] was > 30 µM (inactive).

For the compound `Cn1c(=O)c(F)c(Nc2ccc(I)cc2F)c2c(=O)n(C[C@@H](O)CO)cnc21` [TAK-733], the Kd in [1], in test [2], in test [3], in test [4], in test [5] and in test [6] was > 30 µM (inactive) throughout. The Kd in [7], in test [8], in test [9], in test [10], in [11] and in test [12] was > 30 µM (inactive) throughout. Further, in test [13], the Kd is > 30 µM (inactive).

For the compound `COc1cccc(Nc2ncnn3ccc(CN4CC[C@@H](N)[C@H](O)C4)c23)c1` [BMS-690514], the Kd in [1], in [2], in test [3], in test [4], in test [5] and in test [6] was > 30 µM (inactive) throughout. The Kd is 3.29 µM (active) in test [7]; > 30 µM (inactive) in [8]; > 30 µM (inactive) in test [9]; > 30 µM (inactive) in [10]; > 30 µM (inactive) in test [11]; > 30 µM (inactive) in test [12]. The Kd in [13] is > 30 µM (inactive).

`S=C(NCc1ccc2c(c1)OCO2)N1CCN(c2ncnc3c2oc2ccccc23)CC1` [AMUVATINIB]: the Kd in test [1], in test [2], in [3], in test [4], in test [5] and in test [6] was > 30 µM (inactive) in each case. Further, the Kd in test [7], in test [8], in test [9], in [10], in test [11] and in test [12] was > 30 µM (inactive) each time. Further, the Kd in test [13] is > 30 µM (inactive).

`C=CC(=O)Nc1cc(Nc2nccc(-c3cn(C)c4ccccc34)n2)c(OC)cc1N(C)CCN(C)C` [OSIMERTINIB]: the Kd in test [1] was > 30 µM (inactive); in test [2] it was > 30 µM (inactive); in test [3], > 30 µM (inactive); in [4] it was > 30 µM (inactive); in [5], > 30 µM (inactive); in [6], 0.321 µM (active). The Kd in [7], in test [8], in test [9], in [10], in [11] and in [12] was > 30 µM (inactive) throughout. Besides, the dissociation constant (Kd) in [13] is 3.66 µM (active).
